Experimental data as given in patent publication US20060069132A1, “Azolecarboxamide herbicides” (priority 2004, published 2006).

Legend:
[1] = test system: barnyardgrass; test: Test B pre-/postemergence herbicide test; assay type: in vivo, Echinochloa crus-galli; conditions: for Barnyardgrass plant response rating: postemergence
Outline: (§1)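 Species tested were Echinochloa crus-galli, Ipomoea coccinea, Xanthium strumarium and Oryza sativa, treated both before emergence and at the 1- to 4-leaf stage; rice and barnyardgrass were also tested under flooding at 2 leaves. Greenhouse incubation lasted 13–15 days before visual 0–100 scoring.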

[2] = test system: Surinam grass; test: Test B pre-/postemergence herbicide test; assay type: in vivo, Urochloa decumbens; conditions: for Surinam Grass plant response rating: postemergence
Outline: (§2)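 Plants compared with untreated controls 13–15 days post-treatment and given a visual 0–100 injury score. Applications: preemergence to seeds; postemergence at 1- to 4-leaf (2–18 cm); paddy species flooded, 2-leaf stage. Vehicle non-phytotoxic, surfactant included.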

[3] = test system: cocklebur; test: Test B pre-/postemergence herbicide test; assay type: in vivo, Xanthium strumarium; conditions: for Cocklebur plant response rating: postemergence
Outline: as §1

[4] = test system: corn; test: Test B pre-/postemergence herbicide test; assay type: in vivo, Zea mays; conditions: for Corn plant response rating: postemergence
Outline: as §2

[5] = test system: large crabgrass; test: Test B pre-/postemergence herbicide test; assay type: in vivo, Digitaria sanguinalis; conditions: for Crabgrass, Large plant response rating: postemergence
Outline: as §2

[6] = test system: giant foxtail; test: Test B pre-/postemergence herbicide test; assay type: in vivo, Setaria faberi; conditions: for Foxtail, Giant plant response rating: postemergence
Outline: as §2

[7] = test system: lambsquarters; test: Test B pre-/postemergence herbicide test; assay type: in vivo, Chenopodium album; conditions: for Lambsquarters plant response rating: postemergence
Outline: as §2

[8] = test system: morningglory; test: Test B pre-/postemergence herbicide test; assay type: in vivo, Ipomoea coccinea; conditions: for Morningglory plant response rating: postemergence
Outline: as §1

[9] = test system: pigweed; test: Test B pre-/postemergence herbicide test; assay type: in vivo, Amaranthus retroflexus; conditions: for Pigweed plant response rating: postemergence
Outline: as §2

[10] = test system: velvetleaf; test: Test B pre-/postemergence herbicide test; assay type: in vivo, Abutilon theophrasti; conditions: for Velvetleaf plant response rating: postemergence
Outline: as §2

[11] = test system: blackgrass; test: Test B postemergence herbicide test; assay type: in vivo, Alopecurus myosuroides; conditions: postemergence
Outline: (§3)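 Plants grow to 1- to 4-leaf stage (2–18 cm) for postemergence spraying, or to 2-leaf stage for the paddy test. Formulated compound is applied. Greenhouse holding lasts 13–15 days. Response is scored visually relative to controls, 0 no effect to 100 complete control; a dash means no result.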

[12] = test system: wheat; test: Test B postemergence herbicide test; assay type: in vivo, Triticum aestivum; parameters: key to Wheat plant response rating: 0 = no effect, 100 = complete control
Outline: (§4)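 Visual ratings, 0 (no effect) to 100 (complete control), made versus controls after 13–15 d greenhouse. Paddy plants treated at 2-leaf stage; postemergence plants at 1- to 4-leaf stage, 2–18 cm tall.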

[13] = test system: wild oat; test: Test B postemergence herbicide test; assay type: in vivo, Avena fatua; conditions: postemergence
Outline: as §4

[14] = test system: rice; test: Test B flooded paddy test; assay type: in vivo, Oryza sativa; conditions: 1000 g ai/ha, scale 0 to 100 (0 no effect, 100 complete control)
Outline: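 Formulated test chemicals went onto postemergence plants measuring 2 to 18 cm, at one to four leaves. For the paddy assay, species had reached two leaves. Scoring took place 13–15 days later by eye, relative to untreated plants, using 0 for no effect up to 100 for full control.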

[15] = test system: small flower umbrella sedge; test: Test B flooded paddy test; assay type: in vivo, Cyperus difformis; conditions: 1000 g ai/ha, scale 0 to 100 (0 no effect, 100 complete control)
Outline: as §3

[16] = test system: ducksalad; test: Test B flooded paddy test; assay type: in vivo, Heteranthera limosa; conditions: 1000 g ai/ha, scale 0 to 100 (0 no effect, 100 complete control)
Outline: as §3

[17] = test system: barnyardgrass; test: Test B flooded paddy test; assay type: in vivo, Echinochloa crus-galli; conditions: 1000 g ai/ha, scale 0 to 100 (0 no effect, 100 complete control)
Outline: as §3

[18] = 125 g ai/ha, 0 is no effect, 100 is complete control, preemergence
[19] = 125 g ai/ha, visual rating, scale 0 (no effect) to 100 (complete control)
[20] = 500 g ai/ha, scale 0 to 100, 0 is no effect, 100 is complete control

CCn1nc(C(C)(C)C)cc1C(=O)Nc1cc(C(=O)NC)c(F)cc1F [Compound 251]
Barnyardgrass plant response rating ([1]; 16 g ai/ha, scale 0 to 100): 0
Barnyardgrass plant response rating ([1]; 62 g ai/ha, scale 0 to 100): 0
Surinam Grass plant response rating ([2]; 16 g ai/ha, scale 0 to 100): 0
Surinam Grass plant response rating ([2]; 62 g ai/ha, scale 0 to 100): 0
Cocklebur plant response rating ([3]; 16 g ai/ha, scale 0 to 100): 0
Cocklebur plant response rating ([3]; 62 g ai/ha, scale 0 to 100): 0
Corn plant response rating ([4]; 16 g ai/ha, scale 0 to 100): 0
Corn plant response rating ([4]; 62 g ai/ha, scale 0 to 100): 0
Crabgrass, Large plant response rating ([5]; 16 g ai/ha, scale 0 to 100): 0
Crabgrass, Large plant response rating ([5]; 62 g ai/ha, scale 0 to 100): 0
Foxtail, Giant plant response rating ([6]; 16 g ai/ha, scale 0 to 100): 0
Foxtail, Giant plant response rating ([6]; 62 g ai/ha, scale 0 to 100): 0
Lambsquarters plant response rating ([7]; 16 g ai/ha, scale 0 to 100): 0
Lambsquarters plant response rating ([7]; 62 g ai/ha, scale 0 to 100): 10
Morningglory plant response rating ([8]; 16 g ai/ha, scale 0 to 100): 0
Morningglory plant response rating ([8]; 62 g ai/ha, scale 0 to 100): 0
Pigweed plant response rating ([9]; 16 g ai/ha, scale 0 to 100): 0
Pigweed plant response rating ([9]; 62 g ai/ha, scale 0 to 100): 10
Velvetleaf plant response rating ([10]; 16 g ai/ha, scale 0 to 100): 0
Velvetleaf plant response rating ([10]; 62 g ai/ha, scale 0 to 100): 10
Blackgrass plant response rating ([11]; 16 g ai/ha, scale 0 to 100): 10
Blackgrass plant response rating ([11]; 62 g ai/ha, scale 0 to 100): 50
Wheat plant response rating ([12]; postemergence, 16 g ai/ha, scale 0 to 100): 20
Wheat plant response rating ([12]; postemergence, 62 g ai/ha, scale 0 to 100): 20
Oat, Wild plant response rating ([13]; 16 g ai/ha, scale 0 to 100): 20
Oat, Wild plant response rating ([13]; 62 g ai/ha, scale 0 to 100): 20
Rice plant response rating [14]: 40
Sedge, Umbrella plant response rating [15]: 40
Ducksalad plant response rating [16]: 30
Barnyardgrass plant response rating [17]: 0

CCc1nn(C(C)(C)C)nc1C(=O)Nc1cc(C(=O)N2CC=CC2)ccc1F [Compound 363]
Plant response rating (0 to 100 scale), Barnyardgrass [1, 18]: 0
Barnyardgrass plant response rating [1, 19]: 0
Barnyardgrass plant response rating [1, 20]: 0
Plant response rating (0 to 100 scale), Surinam Grass [2, 18]: 0
Surinam Grass plant response rating [2, 19]: 10
Plant response rating (0 to 100 scale), Cocklebur [3, 18]: 0
Cocklebur plant response rating [3, 19]: 20
Cocklebur plant response rating [3, 20]: 30
Plant response rating (0 to 100 scale), Corn [4, 18]: 0
Corn plant response rating [4, 19]: 0
Corn plant response rating [4, 20]: 0
Plant response rating (0 to 100 scale), Crabgrass, Large [5, 18]: 20
Crabgrass, Large plant response rating [5, 19]: 10
Crabgrass, Large plant response rating [5, 20]: 10
Plant response rating (0 to 100 scale), Foxtail, Giant [6, 18]: 20
Foxtail, Giant plant response rating [6, 19]: 10
Foxtail, Giant plant response rating [6, 20]: 10
Plant response rating (0 to 100 scale), Lambsquarters [7, 18]: 0
Lambsquarters plant response rating [7, 19]: 30
Plant response rating (0 to 100 scale), Morningglory [8, 18]: 0
Morningglory plant response rating [8, 19]: 50
Plant response rating (0 to 100 scale), Pigweed [9, 18]: 0
Pigweed plant response rating [9, 19]: 20
Plant response rating (0 to 100 scale), Velvetleaf [10, 18]: 0
Velvetleaf plant response rating [10, 19]: 10
Blackgrass plant response rating [11, 19]: 20
Blackgrass plant response rating [11, 20]: 70
Wheat plant response rating ([12]; 125 g ai/ha, visual rating, scale 0 (no effect) to 100 (complete control), postemergence): 10
Wheat plant response rating ([12]; 500 g ai/ha, scale 0 to 100, 0 no effect, 100 complete control, preemergence): 30
Oat, Wild plant response rating [13, 19]: 20
Rice plant response rating [14]: 60
Sedge, Umbrella plant response rating [15]: 80
Ducksalad plant response rating [16]: 90
Barnyardgrass plant response rating [17]: 60
